Laboratory results taken from PMC3254824 (Biochemistry, 2011).

Key:
[1] = molecular target: T1, yThg1 (yeast Thg1, tRNA^His guanylyltransferase) (Saccharomyces cerevisiae, UniProt P53215); test: single-turnover adenylylation kinetics, […]'-32P tRNA; format: biochemical; settings: read-out: KDapp,NTP, adenylylation step, 15 μM enzyme, 10 mM MgCl2, pH 6.0, room temperature
T1 sequence (P53215 1-237): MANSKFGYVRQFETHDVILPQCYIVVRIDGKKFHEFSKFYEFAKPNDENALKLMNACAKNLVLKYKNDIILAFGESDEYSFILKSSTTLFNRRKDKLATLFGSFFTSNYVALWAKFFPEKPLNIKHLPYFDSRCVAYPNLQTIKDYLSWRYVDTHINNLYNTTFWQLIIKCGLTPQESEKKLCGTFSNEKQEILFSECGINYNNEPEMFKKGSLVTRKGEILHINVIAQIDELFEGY

[2] = molecular target: T1, yThg1 (yeast Thg1, tRNA^His guanylyltransferase); test: single-turnover nucleotidyl transfer kinetics, gamma-32P ppp-tRNA; format: biochemical; settings: read-out: KDapp,NTP, nucleotidyl transfer step, 15 μM enzyme, 10 mM MgCl2, pH 7.5, room temperature

Row | Kd [1] [µM] | Kd [2] [µM] | Compound
1 | 360 ± 80 | – | Nc1ncnc2c1ncn2[C@@H]1O[C@H](COP(=O)(O)OP(=O)(O)OP(=O)(O)O)[C@@H](O)[C@H]1O [ATP]
2 | – | 21 ± 4 | Nc1nc2c(ncn2[C@@H]2O[C@H](COP(=O)(O)OP(=O)(O)OP(=O)(O)O)[C@@H](O)[C@H]2O)c(=O)[nH]1 [GTP]
